Experimental findings from ChEMBL document CHEMBL2157966, “Elevation of cellular O-GlcNAcylation level by a potent and selective O-GlcNAcase inhibitor based on tetrahydroimidazopyridine scaffold” (Bioorg Med Chem Lett, 2012) are described below.

Each structure is given as a SMILES string. pKi: −log10 of the molar value. Active and inactive are the calls of the source. The rule behind the calls is not given here.

Test [1] has as its target T1, Protein O-GlcNAcase (Homo sapiens) (UniProt O60502).
T1 sequence (whole entry): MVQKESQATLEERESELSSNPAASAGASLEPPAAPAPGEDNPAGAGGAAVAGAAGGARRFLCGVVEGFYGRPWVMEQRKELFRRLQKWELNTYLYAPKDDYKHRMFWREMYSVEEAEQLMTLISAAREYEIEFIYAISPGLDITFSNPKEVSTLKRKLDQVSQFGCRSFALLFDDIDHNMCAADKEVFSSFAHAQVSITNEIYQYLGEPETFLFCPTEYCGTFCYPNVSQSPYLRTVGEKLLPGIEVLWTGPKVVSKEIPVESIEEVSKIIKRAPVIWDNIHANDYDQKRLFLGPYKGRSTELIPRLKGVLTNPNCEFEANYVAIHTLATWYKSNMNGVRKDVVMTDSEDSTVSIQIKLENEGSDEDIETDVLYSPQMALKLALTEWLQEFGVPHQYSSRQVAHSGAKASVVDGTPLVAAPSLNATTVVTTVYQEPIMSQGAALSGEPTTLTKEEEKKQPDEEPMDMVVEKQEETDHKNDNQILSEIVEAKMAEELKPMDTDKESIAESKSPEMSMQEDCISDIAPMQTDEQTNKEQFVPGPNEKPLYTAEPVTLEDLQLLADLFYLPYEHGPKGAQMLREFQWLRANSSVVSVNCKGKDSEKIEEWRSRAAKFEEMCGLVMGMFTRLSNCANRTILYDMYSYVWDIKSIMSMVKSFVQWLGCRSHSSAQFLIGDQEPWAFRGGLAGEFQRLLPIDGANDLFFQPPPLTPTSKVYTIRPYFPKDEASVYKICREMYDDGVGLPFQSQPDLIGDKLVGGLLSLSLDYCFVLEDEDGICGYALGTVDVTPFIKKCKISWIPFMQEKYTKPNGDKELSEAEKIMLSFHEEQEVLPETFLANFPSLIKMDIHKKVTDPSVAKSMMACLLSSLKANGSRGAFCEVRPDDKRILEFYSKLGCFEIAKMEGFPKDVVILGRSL
In words: Inhibition of human OGA at 100 uM.

A further test concerns the target T2, Protein O-GlcNAcase (Homo sapiens, UniProt O60502).
T2 sequence (O60502 whole entry): T1 sequence (whole entry)
In words: Competitive inhibition of human OGA using 4-MU-GlcNAc as substrate after 10 mins by Lineweaver Burk plot analysis.

The target of test [2] is T3, Beta-hexosaminidase subunit alpha (Homo sapiens, UniProt P06865).
T3 sequence (P06865 whole entry): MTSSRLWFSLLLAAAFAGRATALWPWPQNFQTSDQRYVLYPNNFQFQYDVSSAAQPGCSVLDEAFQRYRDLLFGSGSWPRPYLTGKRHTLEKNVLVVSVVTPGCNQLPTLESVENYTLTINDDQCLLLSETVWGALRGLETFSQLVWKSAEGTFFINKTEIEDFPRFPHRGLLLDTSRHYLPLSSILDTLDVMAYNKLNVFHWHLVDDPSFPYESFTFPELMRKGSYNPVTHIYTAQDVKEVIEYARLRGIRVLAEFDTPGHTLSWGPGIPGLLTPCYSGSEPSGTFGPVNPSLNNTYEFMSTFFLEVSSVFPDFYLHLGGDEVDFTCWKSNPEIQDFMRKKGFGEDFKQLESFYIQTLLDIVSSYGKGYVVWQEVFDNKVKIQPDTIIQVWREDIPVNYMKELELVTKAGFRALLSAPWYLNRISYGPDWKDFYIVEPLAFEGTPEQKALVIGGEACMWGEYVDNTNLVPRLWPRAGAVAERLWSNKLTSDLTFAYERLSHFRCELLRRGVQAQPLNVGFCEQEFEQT
Description: Inhibition of human Hex A using 4-MU-GlcNAc as substrate after 10 mins by Lineweaver Burk plot analysis.

Test [3] concerns the target T1, Protein O-GlcNAcase (Homo sapiens). Description: Inhibition of OGA in human SH-SY5Y cells assessed as increase in protein O-GlcNAcylation level after 24 hrs by Western blot analysis. Type of test: cell-based.
For test [4] the target is unchanged. Description: Inhibition of OGA in human SH-SY5Y cells assessed as increase in protein O-GlcNAcylation level at 10 uM after 24 hrs by Western blot analysis. Type of test: cell-based. On the technique in general: In western blotting, separated proteins are transferred to a membrane and probed.

In test [1], `OC[C@@H]1[C@@H](O)[C@H](O)[C@@H](O)c2nc(CCc3ccc(F)cc3)cn21` gave an inhibition of 26.1%.
Turning to `OC[C@@H]1[C@@H](O)[C@H](O)[C@@H](O)c2nc(CCc3ccc(-c4ccccc4)cc3)cn21`, the inhibition is 84.8% in test [1] and “Dose-dependent effect” in test [3]. In addition, the pKi at Protein O-GlcNAcase is 5.23; in test [2] it was 3.79. Also, the inhibition entry in test [4] is “Active”.
`Cc1ccc(CCc2cn3c(n2)[C@H](O)[C@@H](O)[C@H](O)[C@H]3CO)cc1` yielded an inhibition in test [1] of 28.3%.
As for `OC[C@@H]1[C@@H](O)[C@H](O)[C@@H](O)c2nc(CCc3ccc(C4CCCCC4)cc3)cn21`, the inhibition in test [1] was 56.6%.
In turn, `O=C(CCc1cn2c(n1)[C@H](O)[C@@H](O)[C@H](O)[C@H]2CO)Nc1ccccc1` displayed an inhibition in test [1] of 17.1%.
As to `CC(C)(C)CCc1cn2c(n1)[C@H](O)[C@@H](O)[C@H](O)[C@H]2CO`, in test [1], the inhibition was 0.4%.
`CC(C)(CCc1cn2c(n1)[C@H](O)[C@@H](O)[C@H](O)[C@H]2CO)C(=O)Nc1ccccc1`: the inhibition in test [1] is 2.2%.
`OC[C@@H]1[C@@H](O)[C@H](O)[C@@H](O)c2nccn21` came in with an inhibition in test [1] of 6.2%.
In test [1], `OC[C@@H]1[C@@H](O)[C@H](O)[C@@H](O)c2nc(CCc3ccccc3)cn21` had an inhibition of 6.8%.
As to `CCCCCCCCc1cn2c(n1)[C@H](O)[C@@H](O)[C@H](O)[C@H]2CO`, in test [1], the inhibition was 15.3%.
On the same count and under the same terms, the figure for `COc1ccc(CCc2cn3c(n2)[C@H](O)[C@@H](O)[C@H](O)[C@H]3CO)cc1` is 54.1%.

As a reminder, the inhibition is the drop in the measured response relative to a control, in per cent. What is called pKi is the negative decadic logarithm of the Ki, by convention in mol/L.
